GI50 and TGI data for eight molecules are collected here from PubChem BioAssay (NCI).

Several values for one entry are separate records, joined by “and”; a condition that tells them apart may be missing. Equal values may be shown once.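 Grown in 96-well plates, cells were treated for 48 hours with each compound at five concentrations. Insufficient inhibition: endpoint recorded as highest concentration tested. Abbreviation: GI50, concentration required for 50% inhibition of growth. TGI: concentration producing complete growth inhibition.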

Among the test systems are HS 578T breast; LOX IMVI melanoma; NCI-H522 lung; OVCAR-4 ovarian; OVCAR-5 ovarian; PC-3 prostate; T-47D breast; U251 CNS; UACC-257 melanoma; UACC-62 melanoma.
Assay in all cases: NCI anticancer screen, dose series, 48 h

In the case of `O=C(CCN1CCCC1)Nc1ccc2c(Nc3ccccc3)c3ccccc3nc2c1`, the GI50 in the assay on HS 578T breast is 1.09 µM; in the assay on LOX IMVI melanoma, 0.398 µM; in the assay on NCI-H522 lung, 1.03 µM; with OVCAR-4 ovarian it was 0.468 µM; in the assay on OVCAR-5 ovarian, 1.52 µM; with PC-3 prostate it was 0.951 µM. Also, the GI50 with T-47D breast was 0.399 µM; with U251 CNS it was 0.429 µM; in the assay on UACC-257 melanoma, 1.75 µM; with UACC-62 melanoma, 1.12 µM. For the same molecule, the TGI with HS 578T breast stood at 3.28 µM; in the assay with LOX IMVI melanoma it was 1.93 µM; in the assay on NCI-H522 lung, 2.88 µM; in the assay on OVCAR-4 ovarian, 2.13 µM; in the assay with OVCAR-5 ovarian, 4.4 µM; in the assay on PC-3 prostate, 3.01 µM. Besides, the TGI is 2.76 µM with T-47D breast, 2.19 µM with U251 CNS, 3.83 µM in the assay with UACC-257 melanoma and 2.55 µM with UACC-62 melanoma.
Turning to `O=C(O)C1C(C(=O)O)C2(Cl)C(Cl)=C(Cl)C1(Cl)C2(Cl)Cl.[Cd]` (stereo not given), the GI50 with HS 578T breast is 23.5 µM; with LOX IMVI melanoma it was 16.8 µM; in the assay with NCI-H522 lung, 0.412 µM; in the assay with OVCAR-4 ovarian it was 14.9 µM; in the assay on OVCAR-5 ovarian, 18.2 µM; in the assay on PC-3 prostate it was 15.3 µM. Also, the GI50 in the assay on T-47D breast was 11.4 µM; in the assay on U251 CNS, 11.2 µM; with UACC-257 melanoma, 15.5 µM; in the assay on UACC-62 melanoma, 3.84 µM. Further, the TGI was above 87 µM in the assay on HS 578T breast; 33.5 µM in the assay with LOX IMVI melanoma; 1.78 µM in the assay with NCI-H522 lung; 37.5 µM in the assay with OVCAR-4 ovarian; 32.9 µM with OVCAR-5 ovarian; 29.7 µM in the assay on PC-3 prostate. In addition, the TGI stood at 28.1 µM with T-47D breast, 24.9 µM in the assay on U251 CNS, 30.7 µM with UACC-257 melanoma and 15.4 µM in the assay with UACC-62 melanoma.
For the molecule `COc1cc2nnn3c4ncccc4c(N=O)c3c2cc1OC`, the GI50 is 4.82 µM in the assay on HS 578T breast; 1.16 µM with LOX IMVI melanoma; 3.04 µM in the assay with NCI-H522 lung; 3.23 µM with OVCAR-4 ovarian; 5.83 µM in the assay with OVCAR-5 ovarian; 5.62 µM in the assay on PC-3 prostate. For the same molecule, the GI50 was 0.317 µM with T-47D breast, 0.777 µM with U251 CNS, 8.56 µM in the assay with UACC-257 melanoma and 4.87 µM in the assay with UACC-62 melanoma. Further, the TGI with HS 578T breast was above 100 µM; with LOX IMVI melanoma, above 100 µM; with NCI-H522 lung, 28 µM; in the assay on OVCAR-4 ovarian, above 100 µM; in the assay with OVCAR-5 ovarian, above 64.6 µM; in the assay with PC-3 prostate, above 100 µM. For the same molecule, the TGI is above 29.9 µM in the assay on T-47D breast, above 39.9 µM in the assay on U251 CNS, above 100 µM in the assay on UACC-257 melanoma and 24.5 µM in the assay with UACC-62 melanoma.
In the case of `O=c1[nH]c2cc(Cl)c(Cl)cc2n2cc3ccccc3c12`, the GI50 with HS 578T breast was 20.1 µM; in the assay with LOX IMVI melanoma, 17.3 µM; in the assay on NCI-H522 lung, 10.2 µM; with OVCAR-4 ovarian it was 20.3 µM; with OVCAR-5 ovarian, 17.1 µM; in the assay on PC-3 prostate, 17.3 µM. Besides, the GI50 was 30.8 µM in the assay on T-47D breast, 16.4 µM with U251 CNS, 20.3 µM in the assay on UACC-257 melanoma and 16.5 µM in the assay with UACC-62 melanoma. The TGI with HS 578T breast was found to be 53 µM; in the assay with LOX IMVI melanoma, 31 µM; with NCI-H522 lung, 31 µM; in the assay with OVCAR-4 ovarian, 49.8 µM; with OVCAR-5 ovarian it was 30.8 µM; in the assay on PC-3 prostate, 31.1 µM. The TGI in the assay with T-47D breast was found to be 75.5 µM; in the assay with U251 CNS, 30 µM; in the assay on UACC-257 melanoma, 48.6 µM; in the assay on UACC-62 melanoma, 30.1 µM.
As to `CC(=O)Oc1ccc(C2(c3ccc(OC(C)=O)cc3)C(=O)Nc3ccccc32)cc1`, the GI50 with HS 578T breast is 0.0651 µM and 0.153 µM; with LOX IMVI melanoma, 16.8 µM and 13.8 µM; with NCI-H522 lung, 3.12 µM and 4.56 µM; in the assay on OVCAR-4 ovarian it was 0.0347 µM and 0.0389 µM; in the assay with OVCAR-5 ovarian it was above 70.8 µM; with PC-3 prostate, 5.19 µM and 14.3 µM. The GI50 was 0.031 µM and 0.0327 µM in the assay on T-47D breast; 33.6 µM and 41.4 µM in the assay with U251 CNS; 24.1 µM and 28.2 µM in the assay with UACC-257 melanoma; 34.8 µM and 43.5 µM with UACC-62 melanoma. In addition, the TGI in the assay with HS 578T breast is 0.484 µM and 0.7 µM; with LOX IMVI melanoma it was above 100 µM; in the assay on NCI-H522 lung, above 100 µM; with OVCAR-4 ovarian, 1.42 µM; with OVCAR-5 ovarian, above 100 µM; with PC-3 prostate, above 100 µM. Further, the TGI in the assay on T-47D breast was 0.112 µM and 0.129 µM; with U251 CNS, above 100 µM; in the assay on UACC-257 melanoma, 79.4 µM and > 100 µM; in the assay on UACC-62 melanoma, above 100 µM.
As to `CC(C)(C)[Si](C)(C)OCC1OC(n2cnc3c(N)ncnc32)C(O)C1O` (stereo not given), the TGI in the assay on HS 578T breast, with LOX IMVI melanoma, in the assay on NCI-H522 lung, with OVCAR-4 ovarian, with OVCAR-5 ovarian and in the assay on PC-3 prostate was above 100 µM in each case. The TGI in the assay on T-47D breast, in the assay on U251 CNS, in the assay with UACC-257 melanoma and in the assay on UACC-62 melanoma was above 100 µM in each case.
For the molecule `COc1cc(O)c(C(C)=O)c(O)c1`, the TGI with HS 578T breast, in the assay on LOX IMVI melanoma, in the assay on NCI-H522 lung, with OVCAR-4 ovarian, in the assay with OVCAR-5 ovarian and in the assay with PC-3 prostate was above 100 µM throughout. For the same molecule, the TGI with T-47D breast, with U251 CNS, with UACC-257 melanoma and in the assay with UACC-62 melanoma was above 100 µM throughout.
For the molecule `Fc1c[c-]c(-c2ccccn2)c(F)c1.[CH3-].[Pt+2].c1ccc(P(C[PH+](c2ccccc2)c2ccccc2)c2ccccc2)cc1`, the GI50 in the assay with HS 578T breast is 0.864 µM; in the assay with LOX IMVI melanoma, 0.539 µM; in the assay on NCI-H522 lung it was 0.96 µM; with OVCAR-4 ovarian it was 0.61 µM; in the assay on OVCAR-5 ovarian it was 0.98 µM; in the assay on PC-3 prostate it was 0.373 µM. Also, the GI50 in the assay with T-47D breast was 0.474 µM; in the assay with U251 CNS, 0.347 µM; in the assay with UACC-257 melanoma, 0.696 µM; in the assay with UACC-62 melanoma, 0.545 µM. The TGI in the assay with HS 578T breast turned out to be 2.9 µM; in the assay with LOX IMVI melanoma, 1.28 µM; in the assay on NCI-H522 lung, 3.16 µM; in the assay on OVCAR-4 ovarian, 3.71 µM; in the assay with OVCAR-5 ovarian it was 2.54 µM; in the assay with PC-3 prostate it was 1.53 µM. Further, the TGI was found to be 3.27 µM with T-47D breast, 1.06 µM with U251 CNS, 2.93 µM in the assay with UACC-257 melanoma and 1.89 µM in the assay on UACC-62 melanoma.
